{"source": "patent US20150141274A1", "about": "“Methods and Compositions for Activity Dependent Transcriptome Profiling” (The Rockefeller University, priority 2012, published 2015)", "key": {"[1]": {"system": "pS6", "test": "Hypothalamic immunostaining for pS6", "type": "in vivo, mouse", "description": "(§1) Wild-type male C57B6/J mice from Jackson laboratories were maintained on a 8 pm:8 am light-dark schedule and were 9-13 weeks old at the time of sacrifice. All dissections were performed between noon and 2 pm except as noted. For osmotic stimulation experiments, animals were given an intraperitoneal injection of 2M NaCl (350 μL), water was removed from the cage, and mice were sacrificed 120-140 min later. […] Control mice were fed ad libitum and sacrificed at the same time. For ghrelin experiments, animals were given an intraperitoneal injection of ghrelin (66 μg, Tocris), food was removed from the cage, and animals were dissected 70 min later. For scheduled feeding, animals were allowed access to food between noon and 3 pm each day, and then sacrificed between 1:45 and 2 pm after a minimum of 10 days on this schedule.\nMice were sacrified at the indicated times by isoflurane anesthesia followed by transcardial perfusion with PBS and then 10% formalin. Brains were dissected, incubated in 10% formalin overnight at 4° C., and 40 μm sections were prepared on a vibratome. Free floating sections were blocked for 1 h at room temperature in buffer E (PBS, 0.1% Triton, 2% goat serum, 3% BSA), and then stained overnight at 4° C. with primary antibodies at the indicated concentrations. For pS6 244 staining, the pS6 240/244 polyclonal antibody (Cell Signaling, #2215) was combined with the 3P peptide (250 nM final concentration). […]\nImages were acquired using an LSM510 laser scanning confocal microscope. pS6 was quantified in specific neuronal populations as follows. […] The surfaces corresponding to each labelled cell in the field (e.g. each POMC cell) were reconstructed using Imaris software (Bitplane), and the mean intensity in the pS6 channel within the volume bounded by the surface of each labelled cell was recorded. […] In cases where the absolute number of pS6 positive cells within an anatomic region was desired (e.g. Pdyn neurons in the DMH), the number of pS6 positive and negative cells was counted manually."}, "[2]": {"system": "hypothalamus", "test": "Phosphorylated ribosome profiling (Taqman array) of hypothalamus after salt challenge", "type": "in vivo, mouse", "settings": "2M NaCl 350 μL intraperitoneal, 120-140 min; 3P peptide", "description": "(§2) Mice were sacrificed by cervical dislocation. […] Homogenates were transferred to a microcentrifuge tube and clarified at 2000×g for 10 min at 4° C. […] This solution was mixed and then clarified at 17000×g for 10 min at 4° C. The resulting high-speed supernatant was transferred to a new tube, and 20 μL of a 0.05 mM stock solution of 3P peptide was added. A 20 μL aliquot of this solution was removed, transferred to a new tube containing 350 μL buffer RLT (Qiagen), and stored at −80° C. for purification as input RNA. The remainder was used for immunoprecipitation.\n(§3) Immunoprecipitations were allowed to proceed 10 min at 4° C. […] During the third wash the beads were transferred to a new tube and allowed to incubate at RT for 10 min. […] RNA assessed using an Agilent 2100 bioanalyzer.\nas §1\n(§4) Taqman probes were designed and ordered for quantification of each of the 225 genes described in Table 4. Probes were distributed to 96-well plates in duplicate, cDNA was prepared using the Quantitect RT kit (Qiagen), and reactions were run using the Taqman Gene Expression Master Mix (ABI) on an Applied Biosystems 7900HT system. For each experiment (stimulus or control), the abundance of each gene in the input RNA and in the pS6 immunoprecipitated RNA was measured in duplicate. The mean RNA abundance was determined, normalized to an rpL27 probe that was present in every plate, and the ratio (IP/Input) was calculated. The experiment was repeated multiple times for each stimulus or control, these values were averaged, and the differential enrichment was calculated (ratio of (IP/Input) stimulus over control). Note that the differential enrichment was calculated because the neuronal markers that become enriched or depleted specifically in response to the stimulus was of interest. Normalization to the control group accounts for the fact that each neural marker has a somewhat different enrichment at baseline, reflecting the fact that each cell-population has somewhat different level of basal pS6. Follow-up analysis focused in every case on the most highly enriched genes in the experiment, which were validated directly by histology."}, "[3]": {"system": "hypothalamus", "settings": "2 M NaCl 15 μL/g intraperitoneal, 2 hours; pS6 240/244 antibody without 3P peptide", "procedure": "Magnetic beads were loaded by incubating 150 μL of Protein A Dynabeads (Invitrogen) with 4 μg of pS6 antibody in Buffer A (10 mM HEPES [pH 7.4], 150 mM KCl, 5 mM MgCl2, 1% NP40, 0.05% IgG-free BSA). Loading was allowed to proceed at 4° C. for a minimum of 1 day. Beads were washed three times with Buffer A immediately before use.\nMice were sacrificed by cervical dislocation. The hypothalamus was rapidly dissected in Buffer B on ice (1×HBSS, 4 mM NaHCO3, 2.5 mM HEPES [pH 7.4], 35 mM Glucose, 100 μg/mL cycloheximide). […] Samples were homogenized three times at 250 rpm and nine times at 750 rpm on a variable-speed homogenizer (Glas-Col) at 4° C. Homogenates were transferred to a microcentrifuge tube and clarified for 10 minutes at 4000 rpm at 4° C. The supernatant was then removed and transferred to a new tube on ice. […]\nImmunoprecipitations were allowed to proceed for 30-60 min at 4° C. […] RNA quality was quantified using a NanoDrop spectrophotometer and the quality assessed using an Agilent 2100 bioanalyzer. […] For Taqman analysis, cDNA was prepared using the Sensiscript RT kit (Qiagen) and analyzed using an Applied Biosystems 7900HT system. […]\nThe ratio of the signal intensities for each gene in the IP (immunoprecipitation) and input was calculated for each experiment, these values were averaged across replicates, and all genes were sorted according to their fold-enrichment."}, "[4]": {"system": "pS6 and c-fos", "type": "in vivo, mouse", "settings": "intraperitoneal: cocaine 30 mg/kg 60 min, kainate 12.5 mg/kg 120 min, haloperidol 2 mg/kg 30 min, olanzapine 20 mg/kg 120 min, clozapine 10 mg/kg 45 min; ghrelin", "description": "(§5) Wild-type male C57B6/J mice from Jackson laboratories were maintained on a 8 pm:8 am light-dark schedule and were 9-13 weeks old at the time of sacrifice. All dissections were performed between noon and 2 pm except as noted. For osmotic stimulation experiments, animals were given an intraperitoneal injection of 2M NaCl (350 μL), water was removed from the cage, and mice were sacrificed 120-140 min later. For fasting experiments, animals were transferred to a new cage without food at 5 pm and then sacrificed at 8 am the following morning. Control mice were fed ad libitum and sacrificed at the same time. For ghrelin experiments, animals were given an intraperitoneal injection of ghrelin (66 μg, Tocris), food was removed from the cage, and animals were dissected 70 min later. For scheduled feeding, animals were allowed access to food between noon and 3 pm each day, and then sacrificed between 1:45 and 2 pm after a minimum of 10 days on this schedule."}, "[5]": {"target": "T1, K-opioid receptor (KOR) (Mus musculus, UniProt P33534)", "T1 construct": "An intraperitoneal injection of either a selective KOR antagonist (JDTic) or vehicle was administered to mice; from tissue; host or cells: whole animal (wild-type male C57B6/J mice), i.p. or intracerebroventricular dosing", "T1 sequence (P33534 whole entry)": "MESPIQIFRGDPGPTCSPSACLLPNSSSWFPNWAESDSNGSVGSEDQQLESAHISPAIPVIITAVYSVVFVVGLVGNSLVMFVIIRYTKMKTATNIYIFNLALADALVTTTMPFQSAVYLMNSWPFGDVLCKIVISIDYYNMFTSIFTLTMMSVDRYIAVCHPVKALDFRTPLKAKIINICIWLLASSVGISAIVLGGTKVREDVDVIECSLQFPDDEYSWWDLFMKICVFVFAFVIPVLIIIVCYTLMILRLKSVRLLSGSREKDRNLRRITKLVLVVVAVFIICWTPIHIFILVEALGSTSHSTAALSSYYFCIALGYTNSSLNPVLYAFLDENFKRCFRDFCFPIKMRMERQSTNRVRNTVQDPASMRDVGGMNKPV", "test": "Food intake and body weight after treatment with KOR antagonists during scheduled or ad libitum feeding", "type": "in vivo", "description": "as §5\nJDTic was either delivered by intraperitoneal injection (10 mg/kg) or was reconstituted in PBS to a concentration of 1 mg/mL and 5 ul was delivered via Hamilton syringe into the lateral ventricle using coordinates: L/M 1.0 mm from Bregma, A/P −0.4 mm from Bregma and 2.5 mm beneath the cortex. Norbinaltorphimine was delivered at the same dose and coordinates as described above."}, "[6]": {"system": "hypothalamus", "test": "Phosphorylated ribosome profiling (Taqman array) of hypothalamus after ghrelin injection", "type": "in vivo, mouse", "settings": "ghrelin 66 μg intraperitoneal, 70 min", "description": "as §2, §3\nWild-type male C57B6/J mice from Jackson laboratories were maintained on a 8 pm:8 am light-dark schedule and were 9-13 weeks old at the time of sacrifice. All dissections were performed between noon and 2 pm except as noted. […]\nas §4, with “Normalization to the control group accounts for the fact that each neural marker has a somewhat different enrichment at baseline, reflecting the fact that each cell-population has somewhat different level of basal pS6. Follow-up analysis focused in every case on the most highly enriched genes in the experiment, which were validated directly by histology.” left out"}, "[7]": {"target": "phosphorylated ribosomal protein S6 (mouse), in ribosomes of cell lysates (Mus musculus) (UniProt P62754)", "test": "immunoprecipitation of ribosomes from MEF lysates, recovered RNA quantified"}, "[8]": {"target": "phosphorylated ribosomal protein S6 (mouse), in ribosomes of cell lysates (Mus musculus) (UniProt P62754)", "test": "immunoprecipitation of ribosomes from MEF lysates, recovered RNA quantified by Bioanalyzer"}, "[9]": {"settings": "ad libitum fed animals, intraperitoneal injection"}, "[10]": {"settings": "scheduled feeding, intraperitoneal injection 10 mg/kg, single dose"}}, "note": "No end group written: not given here.", "data": [{"compound": "[Cl-].[Na+]", "note": "[salt, NaCl]", "values": [{"measurement": "pS6 staining in PVN, SON and median eminence of the hypothalamus", "setting": "[1]; salt challenge, 2M NaCl versus vehicle (PBS), pS6 244 staining", "value": "induced an increase in pS6"}, {"measurement": "enrichment of Cxcl1 in pS6 immunoprecipitates, salt challenged relative to controls", "setting": "[2]", "value": 13, "unit": "fold"}, {"measurement": "enrichment of Fezf2 in pS6 immunoprecipitates, salt challenged relative to controls", "setting": "[2]", "value": 5.5, "unit": "fold"}, {"measurement": "enrichment of FosB in pS6 immunoprecipitates, salt challenged relative to controls", "setting": "[2]", "value": 38, "unit": "fold"}, {"measurement": "enrichment of Nhlh2 in pS6 immunoprecipitates, salt challenged relative to controls", "setting": "[2]", "value": 7.3, "unit": "fold"}, {"measurement": "enrichment of Sim1 in pS6 immunoprecipitates, salt challenged relative to controls", "setting": "[2]", "value": 4.0, "unit": "fold"}, {"measurement": "enrichment of corticotropin releasing hormone (Crh) in pS6 immunoprecipitates, salt challenged relative to controls", "setting": "[2]", "value": 10, "unit": "fold"}, {"measurement": "enrichment of galanin (Gal) in pS6 immunoprecipitates, salt challenged relative to controls", "setting": "[2]", "value": 4.6, "unit": "fold"}, {"measurement": "enrichment of oxytocin (Oxt) in pS6 immunoprecipitates, salt challenged relative to controls", "setting": "[2]", "value": 14, "unit": "fold"}, {"measurement": "enrichment of prodynorphin (Pdyn) in pS6 immunoprecipitates, salt challenged relative to controls", "setting": "[2]", "value": 3.4, "unit": "fold"}, {"measurement": "enrichment of relaxin-1 (Rln1) in pS6 immunoprecipitates, salt challenged relative to controls", "setting": "[2]", "value": 6.1, "unit": "fold"}, {"measurement": "enrichment of somatostatin (Sst) in pS6 immunoprecipitates, salt challenged relative to controls", "setting": "[2]", "value": 3.1, "unit": "fold"}, {"measurement": "enrichment of urocortin-3 (Ucn3) in pS6 immunoprecipitates, salt challenged relative to controls", "setting": "[2]", "value": 5.3, "unit": "fold"}, {"measurement": "enrichment of vasopressin (Avp) in pS6 immunoprecipitates, salt challenged relative to controls", "setting": "[2]", "value": 49, "unit": "fold"}, {"measurement": "enrichment of Avp in pS6 IPs from salt challenged animals relative to controls, by Taqman", "setting": "[3]", "value": 7.9, "unit": "fold"}]}, {"compound": "C=C(C)[C@H]1CN[C@H](C(=O)O)[C@H]1CC(=O)O", "note": "[kainate]", "values": [{"measurement": "co-localization of pS6 and c-fos in brain regions", "setting": "[4]", "value": "induce co-localization of pS6 and c-fos"}]}, {"compound": "Oc1ccc2c3c1O[C@H]1c4[nH]c5c(c4C[C@@]4(O)[C@@H](C2)N(CC2CC2)CC[C@]314)C[C@@]1(O)[C@H]2Cc3ccc(O)c4c3[C@@]1(CCN2CC1CC1)[C@H]5O4", "note": "[norbinaltorphimine]", "values": [{"measurement": "increase in food intake", "setting": "[5]; scheduled feeding, intracerebroventricular injection", "value": "more than 50%"}]}, {"compound": "ghrelin (GSSFLSPEHQRVQQRKESKKPPAKLQPR; not fully specified (residue 3); ends and bridges not checked; UniProt Q9UBU3 24-51, looked up) [the hormone ghrelin (Tocris)]", "values": [{"measurement": "co-localization of pS6 and c-fos in brain regions", "setting": "[4]", "value": "extensive co-localization of c-fos and pS6"}, {"measurement": "enrichment of AgRP in pS6 immunoprecipitates relative to controls", "setting": "[6]", "value": 27, "unit": "fold"}, {"measurement": "enrichment of NPY in pS6 immunoprecipitates relative to controls", "setting": "[6]", "value": 21, "unit": "fold"}, {"measurement": "enrichment of the ghrelin receptor in pS6 immunoprecipitates relative to controls", "setting": "[6]", "value": 7.1, "unit": "fold"}, {"measurement": "pS6 levels in the compact part of the DMH", "setting": "[1]; ghrelin IP injection, 1 h", "value": "did not increase"}, {"measurement": "pS6 staining in the Arc", "setting": "[1]; ghrelin IP injection, 1 h", "value": "induced strong pS6"}]}, {"compound": "O=C(CCCN1CCC(O)(c2ccc(Cl)cc2)CC1)c1ccc(F)cc1", "note": "[haloperidol]", "values": [{"measurement": "co-localization of pS6 and c-fos in brain regions", "setting": "[4]", "value": "induce co-localization of pS6 and c-fos"}]}, {"compound": "rabbit anti-pS6 240/244 polyclonal antibody (Cell Signaling #2215)", "values": [{"measurement": "fold more RNA associated with immunoprecipitate, wild-type MEFs against S6S5A cells", "setting": "[7]", "value": 100, "unit": "fold"}, {"measurement": "fold more RNA isolated in immunoprecipitate, wild-type MEFs against S6^S5A controls", "setting": "[8]", "value": 100, "unit": "fold"}]}, {"compound": "JDTic", "values": [{"measurement": "body weight", "setting": "[5]; [9]", "value": "no impact"}, {"measurement": "food intake", "setting": "[5]; [9]", "value": "no impact"}, {"measurement": "body weight relative to the control group", "setting": "[5]; [10]", "value": "more rapid regain"}, {"measurement": "food intake relative to the control group", "setting": "[5]; [10]", "value": "increased more rapidly"}]}]}
